Results on eleven molecules are retold here after ChEMBL document CHEMBL1201862, “PubChem BioAssay data set” (2004).

Among the test systems are 786-0; SNB-19; NCI-H522; HL-60; NCI-H460; SK-MEL-2; HOP-92; HCT-116; COLO 205; RPMI-8226; SNB-75; UACC-62; SK-MEL-5; OVCAR-8; RXF 393; CAKI-1; HOP-62; HCT-15; MCF7.
Experiment in all cases: NCI-60 cell line screen, 48 h

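In this assay, cells in 96-well plates receive the compound at five concentrations for 48 hours. Endpoints are linearly interpolated between the surrounding concentrations. At the GI50, growth is halved.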 Active and inactive are the calls of the source. Cut-off read from the data, not from the text of the source: active = GI50 up to about 1.1 µM and inactive = higher. Where only a bound is given, the exact number is not on record here.

Consider `COc1ccc2oc(C(=O)O)c3c2c1CCC3CCC(=O)O` (stereo not given), for which the GI50 in the assay with 786-0, with SNB-19, with NCI-H522, in the assay with HL-60, in the assay on NCI-H460 and with SK-MEL-2 was > 100 µM (inactive) each time. In addition, the GI50 in the assay on HOP-92, in the assay on HCT-116, in the assay on COLO 205, in the assay with RPMI-8226, in the assay on SNB-75 and with UACC-62 was > 100 µM (inactive) in each case. Besides, the GI50 in the assay with SK-MEL-5, with OVCAR-8 and in the assay with RXF 393 was > 100 µM (inactive) in each case.
Take `COc1ccc(C(=O)C(c2ccc(OC)cc2)C2C(=O)Oc3ccccc32)cc1` (stereo not given): the GI50 with 786-0, in the assay with SNB-19, with NCI-H522, in the assay with HL-60, in the assay on CAKI-1 and with NCI-H460 was > 10 µM (inactive) throughout. Moreover, the GI50 with HOP-62, with SK-MEL-2, in the assay with HOP-92, in the assay with HCT-116, in the assay on COLO 205 and in the assay with RPMI-8226 was > 10 µM (inactive) throughout. The GI50 in the assay with SNB-75 is > 10 µM (inactive); with UACC-62, > 10 µM (inactive); with SK-MEL-5, > 10 µM (inactive); in the assay with OVCAR-8, > 10 µM (inactive); in the assay on HCT-15 it was more than 10 µM; with RXF 393 it was > 10 µM (inactive).
In the case of `COc1ccccc1NC(=O)C(=O)C(c1cnc2ccc([N+](=O)[O-])cc2n1)[N+](=O)[O-]` (stereo not given), the GI50 in the assay on 786-0 is > 100 µM (inactive); in the assay with SNB-19, > 100 µM (inactive); with NCI-H522, 8.71 µM (inactive); in the assay on HL-60 it was 19.5 µM (inactive); in the assay with CAKI-1, > 100 µM (inactive); in the assay on NCI-H460 it was > 100 µM (inactive). The GI50 in the assay with HOP-62 is > 100 µM (inactive); in the assay on SK-MEL-2, > 100 µM (inactive); in the assay on HOP-92 it was > 100 µM (inactive); in the assay on HCT-116, > 100 µM (inactive); in the assay on COLO 205 it was 38.3 µM (inactive); in the assay on RPMI-8226, 25.2 µM (inactive). Further, the GI50 was > 100 µM (inactive) in the assay on SNB-75; 53 µM (inactive) in the assay on UACC-62; > 100 µM (inactive) with SK-MEL-5; > 100 µM (inactive) with OVCAR-8; more than 100 µM in the assay on HCT-15; > 100 µM (inactive) in the assay on RXF 393.
On to `OC1C2C=CCC1CCC2` (stereo not given), for which the GI50 in the assay on 786-0, in the assay on SNB-19, in the assay with NCI-H522, with HL-60, with CAKI-1 and with NCI-H460 was > 100 µM (inactive) in each case. Besides, the GI50 in the assay with HOP-62, in the assay on SK-MEL-2, with HOP-92, in the assay with HCT-116, in the assay with COLO 205 and in the assay on RPMI-8226 was > 100 µM (inactive) each time. Moreover, the GI50 in the assay with SNB-75, with UACC-62, in the assay with SK-MEL-5, with OVCAR-8 and in the assay on RXF 393 was > 100 µM (inactive) in each case.
For the molecule `Cc1cccc2c(=O)c([Se]c3coc4c(C)cccc4c3=O)coc12`, the GI50 is 17.3 µM (inactive) with 786-0; 19.4 µM (inactive) with SNB-19; 31.3 µM (inactive) in the assay on NCI-H522; 30.6 µM (inactive) in the assay with HL-60; 20.7 µM (inactive) in the assay on CAKI-1; 5.73 µM (inactive) with NCI-H460. Moreover, the GI50 with HOP-62 was 11.9 µM (inactive); with SK-MEL-2, 18.5 µM (inactive); with HOP-92 it was 20.8 µM (inactive); with HCT-116, 5.68 µM (inactive); with COLO 205, > 10 µM (inactive); in the assay with RPMI-8226, 29.2 µM (inactive). Besides, the GI50 was 16.7 µM (inactive) with SNB-75; 17.8 µM (inactive) with UACC-62; 18.2 µM (inactive) in the assay on SK-MEL-5; 15.9 µM (inactive) in the assay with OVCAR-8; 19.4 µM in the assay with HCT-15; 17.8 µM (inactive) in the assay on RXF 393.
Consider `CCOC(=O)NN1C(=O)C(=P(c2ccccc2)(c2ccccc2)c2ccccc2)C(C(=O)OCC)=C1C`, for which the GI50 in the assay on 786-0, in the assay with SNB-19, in the assay with NCI-H522, with HL-60, in the assay on CAKI-1 and with NCI-H460 was > 100 µM (inactive) throughout. Moreover, the GI50 in the assay with HOP-62, in the assay on SK-MEL-2, in the assay on HOP-92, with HCT-116, in the assay on COLO 205 and in the assay with RPMI-8226 was > 100 µM (inactive) in each case. The GI50 was > 100 µM (inactive) with SNB-75; > 100 µM (inactive) in the assay with UACC-62; > 100 µM (inactive) with SK-MEL-5; > 100 µM (inactive) with OVCAR-8; more than 100 µM with HCT-15; > 100 µM (inactive) in the assay on RXF 393.
Take `O=C(CSc1c2ccccc2nc2ccccc12)Nc1ccccc1-c1ccccc1NC(=O)CSc1c2ccccc2nc2ccccc12`: the GI50 was 6.76 µM (inactive) with 786-0; 22.4 µM (inactive) in the assay on SNB-19; 9.42 µM (inactive) in the assay on NCI-H522; 6.17 µM (inactive) in the assay on HL-60; 26.6 µM (inactive) with CAKI-1; 29 µM (inactive) in the assay on NCI-H460. The GI50 with HOP-62 was 31.8 µM (inactive); with SK-MEL-2, 17.6 µM (inactive); in the assay on HOP-92, 30.8 µM (inactive); in the assay with HCT-116, 27.2 µM (inactive); with COLO 205 it was 30.1 µM (inactive); with RPMI-8226, 4.46 µM (inactive). For the same molecule, the GI50 was 42.2 µM (inactive) in the assay on SNB-75; 18 µM (inactive) in the assay with UACC-62; 12.8 µM (inactive) with SK-MEL-5; 28.5 µM (inactive) in the assay on OVCAR-8; 20.2 µM with HCT-15; 21.5 µM (inactive) with RXF 393.
As to `Cc1cccc(C(C)C)c1NC(=O)CC1C(=O)Nc2ccccc2S1(=O)=O` (stereo not given), the GI50 in the assay with 786-0 was 13.9 µM (inactive); in the assay with SNB-19, 29.2 µM (inactive); with NCI-H522 it was 7.01 µM (inactive); in the assay on HL-60, 5.28 µM (inactive); in the assay with CAKI-1 it was 6.58 µM (inactive); with NCI-H460, 12.8 µM (inactive). Also, the GI50 was 54.6 µM (inactive) with HOP-62; > 38.3 µM (inactive) with SK-MEL-2; 11.8 µM (inactive) in the assay on HOP-92; 15.7 µM (inactive) with HCT-116; 25.2 µM (inactive) in the assay on COLO 205; 3.14 µM (inactive) in the assay with RPMI-8226. Further, the GI50 with SNB-75 was 21.5 µM (inactive); with UACC-62, 11.8 µM (inactive); in the assay on SK-MEL-5, 12.3 µM (inactive); with OVCAR-8, 14.4 µM (inactive); with HCT-15, 5.11 µM; in the assay on RXF 393, 10.2 µM (inactive).
Consider `Cc1ccccc1Nc1nc2c(s1)C(=O)c1ccccc1C2=O`, for which the GI50 was 2.95 µM (inactive) in the assay on 786-0; 7.21 µM (inactive) with SNB-19; 2.86 µM (inactive) with NCI-H522; 2.31 µM (inactive) in the assay on HL-60; 16.5 µM (inactive) in the assay on CAKI-1; 8.67 µM (inactive) in the assay with NCI-H460. The GI50 with MCF7 is 2 µM (inactive); with HOP-62 it was 16.4 µM (inactive); in the assay with SK-MEL-2 it was 16.7 µM (inactive); with HOP-92 it was 11.9 µM (inactive); in the assay with HCT-116 it was 2.36 µM (inactive); in the assay on COLO 205 it was 16.8 µM (inactive). Besides, the GI50 with RPMI-8226 was 2.93 µM (inactive); in the assay on SNB-75, 15.3 µM (inactive); in the assay with UACC-62, 4.55 µM (inactive); with SK-MEL-5, 2.92 µM (inactive); with OVCAR-8, 2.86 µM (inactive); with HCT-15, 3.78 µM. Also, in the assay on RXF 393, the GI50 is 8.87 µM (inactive).
Take `COC(=O)C1=C(O)C(O)=C(C(=O)OC)C1`: the GI50 in the assay with 786-0, in the assay on SNB-19, with NCI-H522, in the assay on HL-60, in the assay on CAKI-1 and with NCI-H460 was > 100 µM (inactive) throughout. In addition, the GI50 with HOP-62, in the assay with SK-MEL-2, with HOP-92, in the assay on HCT-116, in the assay with COLO 205 and in the assay with RPMI-8226 was > 100 µM (inactive) in each case. Moreover, the GI50 is > 100 µM (inactive) in the assay on SNB-75; 0.612 µM (active) with UACC-62; > 100 µM (inactive) in the assay with SK-MEL-5; > 100 µM (inactive) with OVCAR-8; more than 100 µM in the assay on HCT-15; > 100 µM (inactive) with RXF 393.
For `O=C1Nc2ccc(Br)cc2/C1=N/Nc1ccc([N+](=O)[O-])cc1`, the GI50 in the assay on 786-0 was 11.4 µM (inactive); with SNB-19 it was 19.3 µM (inactive); in the assay on NCI-H522, 31.3 µM (inactive); with HL-60, 12.6 µM (inactive); in the assay with CAKI-1 it was 22.8 µM (inactive); in the assay on NCI-H460 it was 17.4 µM (inactive). Besides, the GI50 with HOP-62 is 18.9 µM (inactive); with SK-MEL-2, 31 µM (inactive); in the assay with HOP-92, 13.6 µM (inactive); in the assay with HCT-116, 17.1 µM (inactive); with COLO 205, 27.2 µM (inactive); in the assay on RPMI-8226 it was 16.4 µM (inactive). In addition, the GI50 was 19.3 µM (inactive) in the assay on SNB-75; 27.9 µM (inactive) in the assay on UACC-62; 25 µM (inactive) with SK-MEL-5; 14.4 µM (inactive) in the assay on OVCAR-8; 27.2 µM in the assay with HCT-15; 19.5 µM (inactive) in the assay on RXF 393.
